Test results published in patent US20040254162A1, “Oxazolidinone derivatives as antimicrobials” (priority 2001, published 2004).
Converted amounts (≈) assume the structure as drawn. “And” between values parts separate entries of the source, which are not always exact repeats. Equal values may be shown once. Read-outs that look alike come from different tables or passages of the source.

How the values were obtained:
VRE 6A (Ent. faecium 6A) = test: MIC, agar incorporation method; settings: agar incorporation
MRSA 562 [1] = test: In vivo activity against MRSA 562 (ED50); design: species or system Methicillin Resistant Staphylococcus aureus; settings: PO; MRSA 562 infection
S. pneum AB 34 = test: MIC, agar incorporation method; settings: agar incorporation
Strep. pne. ATCC 6303 = test: MIC, agar incorporation method; settings: agar incorporation
MRSA 562 [2] = test: MIC, agar incorporation method
[3] = Changes in MIC under different conditions: agar MIC; type: cell-based; settings: strain not given
Ent. faecalis ATCC 29212 = test: MIC, agar incorporation method; settings: agar incorporation
MRSA 15187 = test: MIC, agar incorporation method; settings: agar incorporation
S. aureus ATCC 25923 = test: MIC, agar incorporation method; settings: agar incorporation
Strep. pyog. ATCC 19615 = test: MIC, agar incorporation method; settings: agar incorporation
[4] = Changes in MIC under different conditions: broth MIC; type: cell-based; settings: strain not given
MRSA 33 = test: MIC, agar incorporation method; settings: agar incorporation
Fusobacterium necrogenes = test: Agar dilution MIC, anaerobes; type: cell-based; settings: single isolate, anaerobic agar dilution
anaerobic bacteria = test: Agar dilution method for anaerobic bacteria, summary; type: cell-based
Eubacterium leutum = test: Agar dilution MIC, anaerobes; type: cell-based; settings: single isolates, anaerobic agar dilution
[5] = tested on: Peptostreptococcus micros; test: Agar dilution MIC, anaerobes; type: cell-based; settings: single isolates, anaerobic agar dilution
[6] = tested on: Prevotella melaninogenica; test: Agar dilution MIC, anaerobes; type: cell-based; settings: single isolates, anaerobic agar dilution
Porphyromonas gingivalis = test: Agar dilution MIC, anaerobes; type: cell-based; settings: single isolate, anaerobic agar dilution
[7] = tested on: Prevotella (Bacteroides) disiens; test: Agar dilution MIC, anaerobes; type: cell-based; settings: single isolates, anaerobic agar dilution
Bacteroides fragilis = test: Agar dilution MIC, anaerobes; type: cell-based; settings: single isolates, anaerobic agar dilution
Prevotella intermedia = test: Agar dilution MIC, anaerobes; type: cell-based; settings: single isolates, anaerobic agar dilution
[8] = tested on: Peptostreptococcus tetradius; test: Agar dilution MIC, anaerobes; type: cell-based; settings: single isolates, anaerobic agar dilution
Clostridium camis = test: Agar dilution MIC, anaerobes; type: cell-based; settings: single isolates, anaerobic agar dilution
P. acnes = test: Agar dilution MIC, anaerobes; type: cell-based; settings: single isolates, anaerobic agar dilution
Clostridium perfringens = test: microbe, parasite or virus in culture; type: cell-based
Clostridium difficile = test: Agar dilution MIC, anaerobes; type: cell-based; settings: single isolates, anaerobic agar dilution
[9] = tested on: Porphyromonas asaccharolytica; test: Agar dilution MIC, anaerobes; type: cell-based; settings: single isolate, anaerobic agar dilution
Prevotella bivia = test: Agar dilution MIC, anaerobes; type: cell-based; settings: single isolate, anaerobic agar dilution
[10] = tested on: Peptostreptococcus prevotii; test: Agar dilution MIC, anaerobes; type: cell-based; settings: single isolates, anaerobic agar dilution
Fusobacterium montiferum = test: Agar dilution MIC, anaerobes; type: cell-based; settings: Fusobacterium, single isolates, anaerobic agar dilution; read-out: MIC Fusobacterium montiferum
Fusobacterium varium = test: Agar dilution MIC, anaerobes; type: cell-based; settings: single isolates, anaerobic agar dilution
[11] = tested on: Mycobacterium tuberculosis
[12] = tested on: Mycobacterium avium intracellulare; test: Agar dilution method, mycobacteria; type: cell-based; settings: for MIC50 / MIC90: Mycobacterium avium, 504 h, Middlebrook 7H10 agar, 21 days; for MIC50: read-out: MIC50; for MIC90: read-out: MIC90
[13] = tested on: Mycobacterium tuberculosis; test: microbe, parasite or virus in culture; settings: 504 h
[14] = tested on: Peptostreptococcus asaccharolyticus; test: Agar dilution MIC, anaerobes; type: cell-based; settings: single isolates, anaerobic agar dilution
Fusobacterium nucleatum = test: Agar dilution MIC, anaerobes; type: cell-based; settings: single isolates, anaerobic agar dilution
[15] = tested on: Peptostreptococcus magnum; test: Agar dilution MIC, anaerobes; type: cell-based; settings: single isolates, anaerobic agar dilution; listed as Ax/clav
[16] = anaerobes, Wilkins Chalgren agar, 48 hour

Question: For CC(=O)NC[C@H]1CN(c2ccc(N3CCN(C(=O)c4ccoc4)CC3)c(F)c2)C(=O)O1 [Compound No. 08, (S)-N[[3-[3-Fluoro-4-[N-1[4-(3-furoyl)]piperazinyl]phenyl]2-oxo-5-oxazolidinyl]-methyl]acetamide], which “MIC VRE 6A” value (VRE 6A (Ent. faecium 6A)) is on record?
Answer: 1 µg/mL (≈ 2.32 µM)

Question: What about the “ED50 (mg/kg body weight) PO” value (MRSA 562 [1]) of the same molecule?
Answer: 25 mg/kg body weight

Question: What about the “MIC S. pneum AB 34” value (S. pneum AB 34) of the same molecule?
Answer: 4 µg/mL (≈ 9.29 µM)

Question: And the “MIC S. pneum 6303” value (Strep. pne. ATCC 6303)?
Answer: 2 µg/mL (≈ 4.65 µM)

Question: And the “MIC” value (MRSA 562 [2]; MRSA 562, Table 5)?
Answer: 1 µg/mL (≈ 2.32 µM)

Question: And the “MIC MRSA 562” value (MRSA 562 [2]; agar incorporation, Table 1)?
Answer: 1 µg/mL (≈ 2.32 µM)

Question: And the “Agar MIC” value [3]?
Answer: 1 µg/mL

Question: And the “MIC E. faecalis 29212” value (Ent. faecalis ATCC 29212)?
Answer: 1 µg/mL (≈ 2.32 µM)

Question: What about the “MIC MRSA 15187” value (MRSA 15187) of the same molecule?
Answer: 1 µg/mL (≈ 2.32 µM)

Question: And the “MIC S. aureus 25923” value (S. aureus ATCC 25923)?
Answer: 2 µg/mL (≈ 4.65 µM)

Question: What about the “MIC S. pyogenes 19615” value (Strep. pyog. ATCC 19615) of the same molecule?
Answer: 1 µg/mL (≈ 2.32 µM)

Question: What about the “Broth MIC +50% Sheep serum” value ([4]; +50% sheep serum) of the same molecule?
Answer: 4 µg/mL

Question: What about the “Broth MIC Normal MH broth” value ([4]; normal MH broth) of the same molecule?
Answer: 2 µg/mL

Question: What about the “MIC MRSA 33” value (MRSA 33) of the same molecule?
Answer: 1 µg/mL (≈ 2.32 µM)

Question: With Cc1ncc([N+](=O)[O-])n1CCO [Metronidazole] as the molecule, how does the MIC (Fusobacterium necrogenes; Fusobacterium necrogenes, read-out: MIC Fusobacterium necrogenes) read?
Answer: 0.25 µg/mL (≈ 1.46 µM)

Question: And the MIC50 (anaerobic bacteria; 48 h)?
Answer: 0.5 µg/mL (≈ 2.92 µM)

Question: And the MIC90 (anaerobic bacteria; 48 h)?
Answer: 2 µg/mL (≈ 11.7 µM)

Question: What about the “Geometric Mean” value (anaerobic bacteria; anaerobes) of the same molecule?
Answer: 0.48 µg/mL

Question: What about the “MIC Range” value (anaerobic bacteria; anaerobes) of the same molecule?
Answer: 0.062 to 32 µg/mL

Question: What about the MIC (Eubacterium leutum; Eubacterium, read-out: MIC Eubacterium leutum) of the same molecule?
Answer: 0.25 µg/mL (≈ 1.46 µM)

Question: And the “MIC Eubacterium leutum” value (Eubacterium leutum)?
Answer: 0.5 µg/mL (≈ 2.92 µM)

Question: What about the MIC ([5]; Parvimonas micra, read-out: MIC Peptostreptococcus micros) of the same molecule?
Answer: 0.25 µg/mL (≈ 1.46 µM)

Question: And the “MIC Peptostreptococcus micros” value [5]?
Answer: 0.5 µg/mL (≈ 2.92 µM)

Question: What about the MIC ([6]; Prevotella melaninogenica, read-out: MIC Prevotella melaninogenica) of the same molecule?
Answer: 0.25 µg/mL (≈ 1.46 µM)

Question: What about the “MIC Prevotella melaninogenica” value [6] of the same molecule?
Answer: 0.5 µg/mL (≈ 2.92 µM)

Question: What about the MIC (Porphyromonas gingivalis; Porphyromonas gingivalis, read-out: MIC Porphyromonas gingivalis) of the same molecule?
Answer: ≤ 0.125 µg/mL

Question: And the “MIC Prevotella (Bacteroides) disiens” value [7]?
Answer: 1 µg/mL (≈ 5.84 µM)

Question: And the MIC ([7]; read-out: MIC Prevotella (Bacteroides) disiens)?
Answer: 0.5 µg/mL (≈ 2.92 µM)

Question: What about the MIC (Bacteroides fragilis; Bacteroides fragilis, read-out: MIC Bacteroides fragilis) of the same molecule?
Answer: 0.5 µg/mL (≈ 2.92 µM)

Question: What about the “MIC Bacteroides fragilis” value (Bacteroides fragilis) of the same molecule?
Answer: 1 µg/mL (≈ 5.84 µM)

Question: What about the MIC (Prevotella intermedia; Prevotella intermedia, read-out: MIC Prevotella intermedia) of the same molecule?
Answer: 0.5 µg/mL (≈ 2.92 µM)

Question: What about the “MIC Prevotella intermedia” value (Prevotella intermedia) of the same molecule?
Answer: 0.25 µg/mL (≈ 1.46 µM)

Question: What about the MIC ([8]; Anaerococcus tetradius, read-out: MIC Peptostreptococcus tetradius) of the same molecule?
Answer: 1 µg/mL (≈ 5.84 µM)

Question: And the MIC (Clostridium camis; Clostridium, read-out: MIC Clostridium camis)?
Answer: ≤ 0.125 µg/mL

Question: What about the MIC (P. acnes; Cutibacterium acnes, read-out: MIC P. acnes) of the same molecule?
Answer: > 16 µg/mL

Question: What about the MIC (Clostridium perfringens; Clostridium perfringens, read-out: MIC Clostridium perfringens, single isolates, anaerobic agar dilution) of the same molecule?
Answer: 1 µg/mL (≈ 5.84 µM)

Question: What about the MIC (Clostridium difficile; Clostridioides difficile, read-out: MIC Clostridium difficile) of the same molecule?
Answer: 0.25 µg/mL (≈ 1.46 µM)

Question: And the MIC ([9]; Porphyromonas asaccharolytica, read-out: MIC Porphyromonas asaccharolytica)?
Answer: ≤ 0.125 µg/mL

Question: What about the MIC (Prevotella bivia; Prevotella bivia, read-out: MIC Prevotella bivia) of the same molecule?
Answer: 1 µg/mL (≈ 5.84 µM)

Question: What about the MIC ([10]; Anaerococcus prevotii, read-out: MIC Peptostreptococcus prevotii) of the same molecule?
Answer: 2 µg/mL (≈ 11.7 µM)

Question: And the “MIC Peptostreptococcus prevotii” value [10]?
Answer: 1 µg/mL (≈ 5.84 µM)

Question: What about the MIC (Fusobacterium montiferum) of the same molecule?
Answer: ≤ 0.125 µg/mL

Question: And the MIC (Fusobacterium varium; Fusobacterium varium, read-out: MIC Fusobacterium varium)?
Answer: ≤ 0.125 µg/mL

Question: With C[C@@H]1CN(c2c(F)c(N)c3c(=O)c(C(=O)O)cn(C4CC4)c3c2F)C[C@H](C)N1 [Sparfloxacin] as the molecule, how does the G.M. ([11]; geometric mean MIC) read?
Answer: 0.53 µg/mL

Question: And the MIC50 [12]?
Answer: 4 µg/mL (≈ 10.2 µM)

Question: What about the MIC90 [12] of the same molecule?
Answer: 8 µg/mL (≈ 20.4 µM)

Question: What about the G.M. ([12]; geometric mean MIC) of the same molecule?
Answer: 3.526 µg/mL

Question: And the MIC50 [13]?
Answer: 1 µg/mL (≈ 2.55 µM)

Question: What about the MIC90 [13] of the same molecule?
Answer: 2 µg/mL (≈ 5.1 µM)

Question: For CO[C@H]1/C=C/O[C@@]2(C)Oc3c(C)c(O)c4c(O)c(c(/C=N/N5CCN(C)CC5)c(O)c4c3C2=O)NC(=O)/C(C)=C\C=C\[C@H](C)[C@H](O)[C@@H](C)[C@@H](O)[C@@H](C)[C@H](OC(C)=O)[C@@H]1C [Rifampicin], which G.M. [11] is on record?
Answer: 6.35 µg/mL

Question: And the G.M. [12]?
Answer: 1.999 µg/mL

Question: What about the MIC50 [12] of the same molecule?
Answer: 1 µg/mL (≈ 1.22 µM)

Question: What about the MIC90 [12] of the same molecule?
Answer: 32 µg/mL (≈ 38.9 µM)

Question: And the MIC50 [13]?
Answer: 64 µg/mL (≈ 77.8 µM)

Question: What about the MIC90 [13] of the same molecule?
Answer: 64 µg/mL (≈ 77.8 µM)

Question: Which “MIC Fusobacterium necrogenes” value (Fusobacterium necrogenes) does the source give for Amox + clav here?
Answer: 0.5 µg/mL

Question: And the “Geometric Mean” value (anaerobic bacteria; anaerobes)?
Answer: 0.423 µg/mL

Question: And the “MIC Range” value (anaerobic bacteria; anaerobes)?
Answer: 0.062 to 32 µg/mL

Question: What about the MIC50 (anaerobic bacteria; [16]) of the same molecule?
Answer: 0.25 µg/mL

Question: And the MIC90 (anaerobic bacteria; [16])?
Answer: 8 µg/mL

Question: And the “MIC Eubacterium leutum” value (Eubacterium leutum)?
Answer: 1 µg/mL

Question: And the “MIC Peptostreptococcus micros” value [5]?
Answer: <=.125 μg/ml

Question: What about the “MIC Prevotella melaninogenica” value [6] of the same molecule?
Answer: 2 µg/mL

Question: And the “MIC Porphyromonas gingivalis” value (Porphyromonas gingivalis)?
Answer: <=.125 μg/ml

Question: What about the “MIC Peptostreptococcus asaccharolyticus” value [14] of the same molecule?
Answer: 0.25 µg/mL

Question: And the “MIC Fusobacterium nucleatum” value (Fusobacterium nucleatum)?
Answer: <=.125 μg/ml

Question: And the “MIC Prevotella intermedia” value (Prevotella intermedia)?
Answer: <=.125 μg/ml

Question: And the “MIC Peptostreptococcus tetradius” value [8]?
Answer: <=.125 μg/ml

Question: What about the “MIC Clostridium camis” value (Clostridium camis) of the same molecule?
Answer: <=.125 μg/ml

Question: And the “MIC P. acnes” value (P. acnes)?
Answer: 0.25 µg/mL

Question: What about the “MIC Clostridium perfringens” value (Clostridium perfringens; single isolates, anaerobic agar dilution) of the same molecule?
Answer: <=.125 μg/ml

Question: What about the “MIC Peptostreptococcus magnum” value [15] of the same molecule?
Answer: 0.25 µg/mL and 0.5 µg/mL

Question: And the “MIC Clostridium difficile” value (Clostridium difficile)?
Answer: 1 µg/mL

Question: And the “MIC Porphyromonas asaccharolytica” value [9]?
Answer: <=.125 μg/ml

Question: What about the “MIC Prevotella bivia” value (Prevotella bivia) of the same molecule?
Answer: <=.125 μg/ml

Question: And the “MIC Peptostreptococcus prevotii” value [10]?
Answer: <=.125 μg/ml

Question: What about the “MIC Fusobacterium varium” value (Fusobacterium varium) of the same molecule?
Answer: 1 µg/mL
